Experimental data from patent US5688950A, “Tricyclic aminoalkylcarboxamides; novel dopamine D3 receptor subtype specific ligands” (Neurogen Corporation, priority 1996, dated 1997).
Structures can show the parent of a compound that is named as a salt. Where two headings read alike, the source gives them in different places.

Experiments:
D2 receptor = biological target: T1, D2 receptor (Chlorocebus aethiops, UniProt P52702); experiment: D2 receptor binding activity (pellets of COS cells, 3H-YM 09151-2); set-up: species or system African Green monkey; settings: 0.5 nM 3H-YM 09151-2, pH 7.4; nonspecific with 1 mM spiperone
T1 construct: expressed in transfected cells; host or cells: COS cells
Procedure: (§1) Pellets of COS cells containing recombinantly produced D2 or D3 receptors from African Green monkey were used for the assays. The sample is homogenized in 100 volumes (w/vol) of 0.05M Tris HCl buffer at 4° C. and pH 7.4. The sample is then centrifuged at 30,000×g and resuspended and rehomogenized. The sample is then centrifuged as described and the final tissue sample is frozen until use. The tissue is resuspended 1:20 (wt/vol) in 0.05M Tris HCl buffer containing 100 mM NaCl.
(§2) Incubations are carried out at 48° C. and contain 0.4 ml of tissue sample, 0.5 nM ^3 H-YM 09151-2 and the compound of interest in a total incubation of 1.0 ml. Nonspecific binding is defined as that binding found in the presence of 1 mM spiperone; without further additions, nonspecific binding is less than 20% of total binding. The binding characteristics of representative compounds of the invention for D2 and D3 receptor subtypes are shown in Table 1 for rat striatal homogenates.

D3 receptor = biological target: T2, D3 receptor (Chlorocebus aethiops, UniProt P52703); experiment: D3 receptor binding activity (pellets of COS cells, 3H-YM 09151-2); set-up: species or system African Green monkey
T2 construct: expressed in transfected cells; host or cells: COS cells
Procedure: as §1, §2

[1] = 0.5 nM 3H-YM 09151-2, pH 7.4, nonspecific with 1 mM spiperone, read-out: D3 Ki

T2 sequence (P52703 whole entry): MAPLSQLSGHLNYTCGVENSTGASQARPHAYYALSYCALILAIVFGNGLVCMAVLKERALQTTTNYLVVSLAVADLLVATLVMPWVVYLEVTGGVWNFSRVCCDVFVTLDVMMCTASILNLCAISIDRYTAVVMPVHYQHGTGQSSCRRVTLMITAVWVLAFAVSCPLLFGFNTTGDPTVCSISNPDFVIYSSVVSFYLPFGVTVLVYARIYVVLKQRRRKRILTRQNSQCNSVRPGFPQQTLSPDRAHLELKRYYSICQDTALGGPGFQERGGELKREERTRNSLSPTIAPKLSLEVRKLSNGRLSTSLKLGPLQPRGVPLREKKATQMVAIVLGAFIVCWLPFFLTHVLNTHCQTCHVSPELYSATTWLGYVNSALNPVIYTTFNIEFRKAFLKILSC
T1 sequence (P52702 whole entry): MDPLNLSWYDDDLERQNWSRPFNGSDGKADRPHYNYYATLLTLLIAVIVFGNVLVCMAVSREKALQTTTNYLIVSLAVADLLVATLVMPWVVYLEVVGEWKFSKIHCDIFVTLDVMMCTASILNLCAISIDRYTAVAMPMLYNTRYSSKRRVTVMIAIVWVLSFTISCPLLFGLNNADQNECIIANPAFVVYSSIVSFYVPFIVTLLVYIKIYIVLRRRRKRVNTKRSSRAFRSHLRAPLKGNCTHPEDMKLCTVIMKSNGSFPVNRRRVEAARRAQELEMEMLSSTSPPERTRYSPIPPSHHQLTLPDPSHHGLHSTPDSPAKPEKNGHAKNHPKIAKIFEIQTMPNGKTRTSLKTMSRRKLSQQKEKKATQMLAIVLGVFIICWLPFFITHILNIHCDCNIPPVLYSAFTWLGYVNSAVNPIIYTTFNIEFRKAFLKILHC

| Compound | Ki (D2 receptor) | Ki (D3 receptor; [1]) | Ki (D3 receptor) |
| --- | --- | --- | --- |
| O=C(NCCCCN1CCc2c(ccc3ccccc23)C1)c1cnc2ccccc2c1 [Compound 1, N-{4-(1,2,3,4-tetrahydrobenz[f]isoquinolin-2-yl)butyl}-quinoline-3-carboxamide hydrochloride] | 0.127 µM | 0.008 µM |  |
| O=C(NCCCCN1CCc2c(ccc3ccccc23)C1)c1ccc2sc3ccccc3c2c1 [Compound 7, N-{4-(1,2,3,4-tetrahydrobenz[f]isoquinolin-2-yl)butyl}-dibenzothiophene-2-carboxamide hydrochloride] | 0.377 µM | 0.005 µM |  |
| O=C(NCCCCN1CCc2c(ccc3ccccc23)C1)c1cnc2ccccc2n1 [Compound 8, N-{4-(1,2,3,4-tetrahydrobenz[f]isoquinolin-2-yl)butyl}-quinoxaline-2-carboxamide hydrochloride] | 0.25 µM | 0.012 µM |  |
| O=C(NCCCCN1CCC2=C(CCc3ccccc32)C1)c1ccc(-c2ccccc2)cc1 [Compound 13, N-{4-(1,2,3,4,5,6-hexahydrobenz[f]isoquinolin-2-yl)butyl}-biphenyl-4-carboxamide hydrochloride] | 0.362 µM |  | 0.01 µM |
| O=C(NCCCCN1CCN2c3ccccc3CCC2C1)c1ccc2c(c1)Cc1ccccc1-2 (stereo not drawn) [Compound 14, N-{4-(2,3,4,4a,5,6-hexahydro-1H-pyrazino[1,2-a]quinolin-2-yl)butyl}-fluorene-2-carboxamide hydrochloride] | 0.198 µM | 0.009 µM |  |
| N-{4-(1,2,3,4-tetrahydrobenz[f]isoquinolin-2-yl)butyl}-fluoren-9-one-3-carboxamide hydrochloride [Compound 6] | 0.165 µM | 0.017 µM |  |
